One experiment deals with T1, human H1R (Homo sapiens, UniProt P35367).
T1 construct: expressed in transfected cells; host or cells: CHO cells
The experiment in a line: Ca2+ mobilization assay on human H1R-expressing CHO cells. In kind it is cell-based. Particulars: Gaddum equation, shift in histamine EC25 with 1 μM antagonist. The protocol: CHO cells expressing H1R were grown to confluence in black-walled, clear-bottom 96-well plates. On the day of the experiment, media were replaced with 100 μL of HBSS containing […], 2.3 μM Fluo-4AM (Invitrogen), 0.023% Pluronic F-127, 0.5 mM Brilliant Black BN, and 1 μM required fluorescent ligand and the plates incubated for 1 h at 37 °C in the dark. The plates were then placed in the multi-well fluorometric imaging plate reader FlexStation3 (Molecular Devices, Sunnyvale, CA) and HBSS only or HBSS containing the required concentration of histamine was added after 15 s. Fluo-4 fluorescence was measured at 520 nm (excitation at 485 nm) every 1.52 s for 200 s. For each well, the peak maximum–minimum–maximum change in fluorescence value was taken and plotted against concentration of histamine to give a dose–response curve.
Estimated affinity values (pKB) were calculated from the shift in agonist concentration–response curves in the presence of the fluorescent antagonists using the Gaddum equation (7): [drawing 10] 7 where DR (dose ratio) is the ratio of the agonist concentration required to stimulate an identical response in the presence and absence of antagonist, [B]. DR was determined from the EC25 value as there was a decrease in observed maximal efficacy of histamine in the presence of all 10 fluorescent antagonists.
(In general: Calcium assays in cells follow changes in intracellular calcium, usually with a dye or a luminescent sensor.)

A further experiment has as its target Nluc-H1R (Homo sapiens, UniProt P35367). The experiment in a line: NanoBRET saturation binding assay on Nluc-H1R expressing HEK293T cells. Set-up: expressed in transfected cells. Particulars: saturation binding curves, whole HEK293T cells; for pKD: non-specific with 10 μM mepyramine, mean ± SEM. An excerpt: Total and non-specific saturation binding curves from NanoBRET saturation binding assay were fitted simultaneously using eq 1: [drawing 4] 1 where Bmax is the maximal specific binding, [B] is the concentration of fluorescent ligand in nM, KD is the equilibrium dissociation constant in nM, M is the slope of the non-specific component, and C is the intercept with the Y axis.

This is an account of results in PMC9234962, “Optimization of Peptide Linker-Based Fluorescent Ligands for the Histamine H1 Receptor” (Journal of Medicinal Chemistry, 2022).

Where two headings read alike, the source gives them in different places. Square brackets hold non-standard residues; d marks the D form. Peptide text beside a SMILES is read from it. * marks the point of attachment. Propanoyl(3-Pip(4-O-2-BnPh)) = O=C(CCN1CCC(Oc2ccccc2Cc2ccccc2)CC1)*; X3 = Cc1cc(C)n2c1C=C1C=CC(/C=C/c3ccc(OCC(=O)*)cc3)=[N+]1[B-]2(F)F; BODIPY(FL) = CC1=CC(C)=[N+]2C1=Cc1ccc(CCC(=O)*)n1[B-]2(F)F; X2 = O=C(CCC1=[N+]2C(=Cc3ccc(-c4cccs4)n3[B-]2(F)F)C=C1)*; βAla = NCCC(=O)O

T1 sequence (P35367 whole entry): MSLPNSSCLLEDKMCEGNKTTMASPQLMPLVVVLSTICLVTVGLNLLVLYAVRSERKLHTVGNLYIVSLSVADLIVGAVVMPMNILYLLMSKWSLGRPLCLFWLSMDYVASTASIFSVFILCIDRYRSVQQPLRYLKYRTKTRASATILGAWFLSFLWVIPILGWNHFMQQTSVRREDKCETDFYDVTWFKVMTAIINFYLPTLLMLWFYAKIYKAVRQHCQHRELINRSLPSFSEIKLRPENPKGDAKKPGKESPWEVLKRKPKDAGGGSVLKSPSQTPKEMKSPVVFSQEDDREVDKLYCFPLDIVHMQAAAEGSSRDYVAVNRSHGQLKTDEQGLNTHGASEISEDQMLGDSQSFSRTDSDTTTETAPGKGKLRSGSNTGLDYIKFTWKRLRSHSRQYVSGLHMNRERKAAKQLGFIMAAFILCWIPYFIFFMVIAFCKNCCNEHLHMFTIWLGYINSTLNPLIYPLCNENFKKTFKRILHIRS
Sequence of Nluc-H1R (P35367 whole entry): as above

In the case of `CC(C)[C@H](NC(=O)CCN1CCC(Oc2ccccc2Cc2ccccc2)CC1)C(=O)N[C@@H](CO)C(=O)N[C@@H](CC(N)=O)C(=O)NCCC(=O)N[C@@H](CCCCNC(=O)CCC1=[N+]2C(=Cc3ccc(-c4cccs4)n3[B-]2(F)F)C=C1)C(N)=O` [Compound 38c, (S)-N^1-(3-(((S)-1-Amino-6-(3-(5,5-difluoro-7-(thiophen-2-yl)-5H-5λ^4,6λ^4-dipyrrolo[1,2-c:2’,1’-f][1,3,2]diazaborinin-3-yl)propanamido)-1-oxohexan-2-yl)amino)-3-oxopropyl)-2-((S)-2-((S)-2-(3-(4-(2-benzylphenoxy)piperidin-1-yl)propanamido)-3-methylbutanamido)-3-hydroxypropanamido)succinamide] ({Propanoyl(3-Pip(4-O-2-BnPh))}-VSN[βAla]K(X2)-NH2), the Kb on human H1R (read-out: KB (converted)) is 302 nM. At Nluc-H1R, the Kd (in general, the equilibrium constant for the complex coming apart) is 209 nM and the pKD (usually the negative decadic logarithm of the KD, by convention in mol/L) came out at 6.68 ± 0.10.

`Cc1cc(C)n2c1C=C1C=CC(CCC(=O)NCCCC[C@H](NC(=O)CCNC(=O)[C@H](C)NC(=O)[C@H](C)NC(=O)[C@H](Cc3ccccc3)NC(=O)CCN3CCC(Oc4ccccc4Cc4ccccc4)CC3)C(N)=O)=[N+]1[B-]2(F)F` [Compound 39d, (S)-2-((6S,9S,12S)-12-Benzyl-16-(4-(2-benzylphenoxy)piperidin-1-yl)-6,9-dimethyl-5,8,11,14-tetraoxo-4,7,10,13-tetraazahexadecanamido)-6-(3-(5,5-difluoro-7,9-dimethyl-5H-4λ^4,5λ^4-dipyrrolo[1,2-c:2’,1’-f][1,3,2]diazaborinin-3-yl)propan-amido)hexanamide] ({Propanoyl(3-Pip(4-O-2-BnPh))}-FAA[βAla]K(BODIPY(FL))-NH2): the Kb at human H1R (mean ± SEM, four experiments, read-out: pKB (converted)) is 34.7 nM. Moreover, at Nluc-H1R, the dissociation constant (Kd) is 1440 nM and the pKD was determined as 5.84 ± 0.13.

As to `Cc1cc(C)n2c1C=C1C=CC(CCC(=O)NCCCC[C@H](NC(=O)CCNC(=O)[C@H](CC(N)=O)NC(=O)[C@H](CO)NC(=O)[C@@H](NC(=O)CCN3CCC(Oc4ccccc4Cc4ccccc4)CC3)C(C)C)C(N)=O)=[N+]1[B-]2(F)F` [Compound 38d, (S)-N^1-(3-(((S)-1-Amino-6-(3-(5,5-difluoro-7,9-dimethyl-5H-4λ^4,5λ^4-dipyrrolo[1,2-c:2’,1’-f][1,3,2]diazaborinin-3-yl)propanamido)-1-oxohexan-2-yl)amino)-3-oxopropyl)-2-((S)-2-((S)-2-(3-(4-(2-benzylphenoxy)piperidin-1-yl)propanamido)-3-methylbutanamido)-3-hydroxypropanamido)succinamide] ({Propanoyl(3-Pip(4-O-2-BnPh))}-VSN[βAla]K(BODIPY(FL))-NH2), the Kb on human H1R (read-out: KB (converted)) was 112 nM. In addition, at Nluc-H1R, the Kd was 1290 nM and the pKD was found to be 5.89 ± 0.10.

With `CC(C)[C@H](NC(=O)CCN1CCC(Oc2ccccc2Cc2ccccc2)CC1)C(=O)N[C@@H](CO)C(=O)N[C@@H](CC(N)=O)C(=O)NCCC(=O)N[C@@H](CCCCNC(=O)CCCCC[N+]1=C(/C=C/C=C/C=C2/N(C)c3ccc(S(=O)(=O)[O-])cc3C2(C)C)C(C)(C)c2cc(S(=O)(=O)O)ccc21)C(N)=O` [Compound 38f, 1-((5S,8S,11S,18S)-11-(2-Amino-2-oxoethyl)-1-(4-(2-benzylphenoxy)piperidin-1-yl)-18-carbamoyl-8-(hydroxymethyl)-5-isopropyl-3,6,9,12,16,24-hexaoxo-4,7,10,13,17,23-hexaazanonacosan-29-yl)-3,3-dimethyl-2-((1E,3E)-5-((E)-1,3,3-trimethyl-5-sulfonatoindolin-2-ylidene)penta-1,3-dien-1-yl)-3H-indol-1-ium-5-sulfonate], at human H1R (read-out: KB (converted)), the Kb is 4680 nM. Moreover, at Nluc-H1R, the Kd was 2190 nM and the pKD was determined as 5.66 ± 0.02.

As for `C[C@H](NC(=O)[C@H](C)NC(=O)[C@H](Cc1ccccc1)NC(=O)CCN1CCC(Oc2ccccc2Cc2ccccc2)CC1)C(=O)NCCC(=O)N[C@@H](CCCCNC(=O)CCC1=[N+]2C(=Cc3ccc(-c4cccs4)n3[B-]2(F)F)C=C1)C(N)=O` [Compound 39c, (S)-2-((6S,9S,12S)-12-Benzyl-16-(4-(2-benzylphenoxy)piperidin-1-yl)-6,9-dimethyl-5,8,11,14-tetraoxo-4,7,10,13-tetraazahexadecanamido)-6-(3-(5,5-difluoro-7-(thiophen-2-yl)-5H-5λ^4,6λ^4-dipyrrolo[1,2-c:2’,1’-f][1,3,2]diazaborinin-3-yl)propanamido)hexanamide] ({Propanoyl(3-Pip(4-O-2-BnPh))}-FAA[βAla]K(X2)-NH2), the Kb on human H1R (read-out: KB (converted)) is 363 nM. On Nluc-H1R, the affinity, expressed as Kd, was 724 nM and the pKD was found to be 6.14 ± 0.06.

On to `C[C@H](NC(=O)[C@H](C)NC(=O)[C@H](Cc1ccccc1)NC(=O)CCN1CCC(Oc2ccccc2Cc2ccccc2)CC1)C(=O)NCCC(=O)N[C@@H](CCCCNC(=O)CCCCC[N+]1=C(/C=C/C=C/C=C2/N(C)c3ccc(S(=O)(=O)[O-])cc3C2(C)C)C(C)(C)c2cc(S(=O)(=O)O)ccc21)C(N)=O` [Compound 39f, 1-((5S,8S,11S,18S)-5-Benzyl-1-(4-(2-benzylphenoxy)piperidin-1-yl)-18-carbamoyl-8,11-dimethyl-3,6,9,12,16,24-hexaoxo-4,7,10,13,17,23-hexaazanonacosan-29-yl)-3,3-dimethyl-2-((1E,3E)-5-((E)-1,3,3-trimethyl-5-sulfonatoindolin-2-ylidene)penta-1,3-dien-1-yl)-3H-indol-1-ium-5-sulfonate], for which, on human H1R (read-out: KB (converted)), the Kb was 813 nM. Moreover, on Nluc-H1R, the Kd was 2190 nM and the negative logarithm of the KD (pKD) amounted to 5.66 ± 0.06.

Regarding `Cc1cc(C)n2c1C=C1C=CC(/C=C/c3ccc(OCC(=O)NCCCC[C@H](NC(=O)CCNC(=O)[C@H](C)NC(=O)[C@H](C)NC(=O)[C@H](Cc4ccccc4)NC(=O)CCN4CCC(Oc5ccccc5Cc5ccccc5)CC4)C(N)=O)cc3)=[N+]1[B-]2(F)F` [Compound 39b, (S)-2-((6S,9S,12S)-12-Benzyl-16-(4-(2-benzylphenoxy)piperidin-1-yl)-6,9-dimethyl-5,8,11,14-tetraoxo-4,7,10,13-tetraazahexadecanamido)-6-(2-(4-((E)-2-(5,5-difluoro-7,9-dimethyl-5H-5λ^4,6λ^4-dipyrrolo[1,2-c:2’,1’-f][1,3,2]diazaborinin-3-yl)vinyl)phenoxy)acetamido)hexanamide] ({Propanoyl(3-Pip(4-O-2-BnPh))}-FAA[βAla]K(X3)-NH2), the Kb at human H1R (read-out: KB (converted)) was 102 nM. On Nluc-H1R, the Kd was 44 nM and the pKD amounted to 7.36 ± 0.03.
